Measurements taken from patent publication US8999419B2, “Enhancement of potato tuber sprouting inhibitors using various combinations of agents” (Washington State University, priority 2010, dated 2015).

What was measured:
Russet Burbank tubers = assay: Sprout fresh weight after 24 h chamber treatment with 3N2 and 2-nonanone mixtures; format: in vivo, potato; details: treated 24 h, 21 days at 22° C.
Experimental: FIG. 1. Effects of 3-nonen-2-one (3N2) in various combinations with 2-nonanone on sprouting of Russet Burbank tubers. The compounds were applied as described in Example 1. Tubers were treated for 24 h, removed from treatment chambers, and placed at 22° C. to sprout for 3 weeks. Sprout fresh weight is expressed as a percentage of control (non-treated), which were 100% sprouted.
The objective of this study was to determine the efficacy of mixtures of 3N2 and its metabolite, 2-nonanone, on sprout inhibition. Potato tubers were treated for 24 h in a closed chamber. The chemicals were volatilized from filter paper inside the chamber. Treatment was with 0 to 0.75 mmol/kg of 3N2 combined factorially with 0 to 0.75 mmol/kg of 2-nonanone. The treated tubers were placed at 22° C. and sprout fresh weights were measured 21 days after treatment. Sprout growth from tubers treated with 0.5 and 0.75 mmol/kg 2-nonanone averaged 58% of non-treated tubers, compared with 9% for […] applied alone (FIG. 1).

[1] = tested on: Russet Burbank potato tubers; assay: Sprout-free interval after CIPC and trans-2-nonenal, alone or in sequence; format: in vivo; details: CIPC 20 mg/kg; T2N 0.75 mmol/kg; applied at 151 DAH; tubers stored at 9° C.
Experimental: FIGS. 2A and B. Treatment with combination of T2N and CIPC. A, sprout growth in “Russet Burbank” tubers treated as indicated with CIPC, trans-2-nonenal, or trans-2-nonenal and CIPC in sequence; fresh weight of sprouts (g/tuber) at the indicated time points. CIPC, 20 mg/kg; T2N, 0.75 mmol/kg; B, photo of tubers.
Following the emergence of Russet Burbank potato tubers from dormancy, CIPC and trans-2-nonenal were applied either alone or sequentially as indicated in FIG. 2A. All treatments were applied at 151 days after harvest (DAH). Sprout control was considered to end when one third of the tubers in the sample produced a sprout mass of greater than 50 mg/tuber or when the mean of the total sample exceeded 1 g/tuber. When both CIPC and trans-2-nonenal were used, the sprout-free interval of the tubers stored at 9° C. […] In this study, the application of CIPC was unconventional in that it occurred when tubers were beginning to sprout, as opposed to the window between wound healing and sprouting. CIPC provided additional sprout control on tubers whose actively growing sprouts were initially terminated by trans-2-nonenal, i.e. when used in combination with trans-2-nonenal. Trans-2-nonenal thus expands the window of opportunity for application of CIPC and this invention can therefore be useful to reduce the application rate and residues of CIPC.

'Ranger Russet' tubers [2] = assay: Days to average sprout length of 10 mm, 3-decen-2-one followed by CIPC; format: in vivo, potato
Experimental: The study used CIPC to extend the sprout-free period following an application of 3-decen-2-one or 2-decanone after sprouting occurs. Protocol.
(§1) This study, as described, used 3-decen-2-one (3D2). The study was duplicated as described with 2-decanone in place of 3D2. Tubers were stored at 9° C. until they emerged from dormancy (when 75% of the sample tubers are peeping, and the longest sprouts are no longer than 4 mm). At this time, 3-decen-2-one was applied at 0.75, 0.50, or 0.25 mmol/kg to ‘burn off’ growing sprouts. Each of these treatments was followed by applications of 1, 0.73, 0.47 or 0.20% a.i. of CIPC EC. The label rate of CIPC EC is 1% a.i. and results in a 10 mg/kg fresh wt application when applied as directed. Sprout measurements were obtained every two weeks. The length of the longest sprout on each tuber was recorded. The average length of the longest sprout was plotted over time for each treatment combination. The days to 10 mm were estimated from the second linear regression line of each element. Positive control treatments included the three rates of 3D2 alone and four post-sprouting concentrations of CIPC alone. The standard control treatment consisted of non-treated tubers.

'Ranger Russet' tubers [3] = assay: Days to average sprout length of 10 mm, 2-decanone followed by CIPC; format: in vivo, potato
Experimental: as §1

[4] = 116 mg kg-1 rate, no subsequent treatment with CIPC

Question: Which “Sprout growth (fresh weight) as percentage of non-treated tubers” value (Russet Burbank tubers; 0.75% 3N2 applied alone) does the source give for `CCCCCC=CC(C)=O` [3N2, 3-nonen-2-one] here?
Answer: 9%

Question: Which Sprout-free interval [1] does the source give for `CCCCCC/C=C/C=O` [trans-2-nonenal] here?
Answer: 155 days

Question: Which results are given for `CCCCCCC=CC(C)=O` [3D2, 3-decen-2-one]?
Answer: Control before sprouting re-occurred ('Ranger Russet' tubers [2]; 0.25 mmol/kg rate): approximately 1 month; Days of control following application ('Ranger Russet' tubers [2]; [4]): 58 days; Days to 10 mm Actual ('Ranger Russet' tubers [2]; 3D2 39 mg kg-1 fresh wt alone (CIPC 0)): 38 days; Days to 10 mm Actual ('Ranger Russet' tubers [2]; 3D2 77 mg kg-1 fresh wt alone (CIPC 0)): 40 days; Days to 10 mm Actual ('Ranger Russet' tubers [2]; 3D2 116 mg kg-1 fresh wt alone (CIPC 0)): 57 days

Question: With `CCCCCCCCC(C)=O` [2-decanone] as the compound, how does the “Control before sprouting re-occurred” value ('Ranger Russet' tubers [3]; 0.25 mmol/kg rate) read?
Answer: approximately 1 month

Question: And the “Days of control following application” value ('Ranger Russet' tubers [3]; [4])?
Answer: 50 days

Question: And the “Days to 10 mm Actual” value ('Ranger Russet' tubers [3]; 2-decanone 39 mg kg-1 fresh wt alone (CIPC 0))?
Answer: 34 days

Question: What about the “Days to 10 mm Actual” value ('Ranger Russet' tubers [3]; 2-decanone 77 mg kg-1 fresh wt alone (CIPC 0)) of the same compound?
Answer: 42 days

Question: And the “Days to 10 mm Actual” value ('Ranger Russet' tubers [3]; 2-decanone 116 mg kg-1 fresh wt alone (CIPC 0))?
Answer: 49 days

Question: For `CCCCCCCC(C)=O` [2-nonanone], which “Sprout growth (fresh weight) as percentage of non-treated tubers” value (Russet Burbank tubers; 0.5 and 0.75 mmol/kg 2-nonanone, averaged) is on record?
Answer: 58%

Question: With `CC(C)OC(=O)Nc1cccc(Cl)c1` [CIPC, chlorpropham, reference compound] as the compound, how does the “Days to 10 mm Actual” value ('Ranger Russet' tubers [3]; CIPC 2.0 mg kg-1 fresh wt alone (2-decanone 0), Table 2 study) read?
Answer: 85 days

Question: And the “Days to 10 mm Actual” value ('Ranger Russet' tubers [3]; CIPC 4.7 mg kg-1 fresh wt alone (2-decanone 0), Table 2 study)?
Answer: 113 days

Question: And the “Days to 10 mm Actual” value ('Ranger Russet' tubers [3]; CIPC 7.3 mg kg-1 fresh wt alone (2-decanone 0), Table 2 study)?
Answer: 110 days

Question: And the “Days to 10 mm Actual” value ('Ranger Russet' tubers [3]; CIPC 10 mg kg-1 fresh wt alone (2-decanone 0), Table 2 study)?
Answer: 112 days

Question: What about the Sprout-free interval [1] of the same compound?
Answer: 124 days

Question: What about the “Days to 10 mm Actual” value ('Ranger Russet' tubers [2]; CIPC 2.0 mg kg-1 fresh wt alone (3D2 0), Table 1 study) of the same compound?
Answer: 51 days

Question: What about the “Days to 10 mm Actual” value ('Ranger Russet' tubers [2]; CIPC 4.7 mg kg-1 fresh wt alone (3D2 0), Table 1 study) of the same compound?
Answer: 80 days

Question: And the “Days to 10 mm Actual” value ('Ranger Russet' tubers [2]; CIPC 7.3 mg kg-1 fresh wt alone (3D2 0), Table 1 study)?
Answer: 99 days

Question: What about the “Days to 10 mm Actual” value ('Ranger Russet' tubers [2]; CIPC 10 mg kg-1 fresh wt alone (3D2 0), Table 1 study) of the same compound?
Answer: 95 days
